What was measured:
AXL kinase = molecular target: T1, AXL kinase (Homo sapiens, UniProt P30530); assay: Inhibitory activity of compound against AXL kinase (HTRF KinEASE); format: biochemical; conditions: AXL enzyme (Carna, 08-107), ATP 15 μM; "<" means below detection limit of the test
T1 construct: purchased Carna 08-107
T1 sequence (P30530 473-894 limits assumed): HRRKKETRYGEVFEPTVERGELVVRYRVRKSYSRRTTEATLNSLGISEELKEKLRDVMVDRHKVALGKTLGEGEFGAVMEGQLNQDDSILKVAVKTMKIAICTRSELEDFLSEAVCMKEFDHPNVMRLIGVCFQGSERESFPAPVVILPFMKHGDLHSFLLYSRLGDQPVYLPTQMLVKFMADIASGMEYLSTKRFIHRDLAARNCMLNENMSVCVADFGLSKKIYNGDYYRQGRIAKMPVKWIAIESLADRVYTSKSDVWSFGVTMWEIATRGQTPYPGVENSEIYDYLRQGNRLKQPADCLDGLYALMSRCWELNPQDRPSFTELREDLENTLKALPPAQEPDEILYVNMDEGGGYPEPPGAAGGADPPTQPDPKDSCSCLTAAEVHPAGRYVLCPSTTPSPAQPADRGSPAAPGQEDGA
Method: a) AXL enzyme (Carna, 08-107) configuration and addition: a 1×enzyme buffer (200 μL of Enzymatic buffer kinase 5×, 10 μL of 500 mM MgCl2, 10 μL of 100 mM DTT and 6.26 μL of 2500 nM SEB are added with […] of H2O, and prepared into 1 ml of 1× enzyme buffer) is used. AXL enzyme is diluted from 33.33 ng/uL to 0.027 ng/μL (1.67×, final conc.=0.016 ng/uL), a BioTek (MultiFlo FX) automatic liquid dispenser is used, and 6 μL of enzyme solution having a 1.67-fold final concentration is added respectively to compound wells and positive control wells; and 6 μL of 1×Enzymatic buffer is added to negative control wells.
b) Compound preparation and addition: the compounds and positive drugs prepared in the examples are diluted from 10 mM to 100 μM by DMSO, and titrated with a compound titrator (Tecan, D300e). The titrated solution is automatically sprayed by the titrator to each well to reach a required concentration, wherein the first concentration is 1 μM, and after ½ log dilution, a total of 8 concentrations are obtained. The resulting mixture is centrifuged at 2500 rpm for 30 s and incubated at room temperature for 15 min.
c) Preparation and addition of ATP and substrate: ATP (Sigma, A7699) is diluted with 1× enzyme buffer from 10 mM to 75 μM (5×), and the final concentration is 15 μM; the substrate TK Substrate 3-biotin (Cisbio, 61TK0BLC) is diluted with 1× enzyme buffer from 500 μM to 5 μM (5×), andthe final concentration is […]; ATP and the substrate are mixed in equal volume to obtain a mixed solution; the mixed solution is added to each well at 4 μL by using a BioTek automatic dispenser; centrifuged at 2500 rpm for 30 s, and reacted at 25° C. for 45 min.
d) Pirparation and addition of detection reagent: Streptavidin-XL665 (Cisbio, 610SAXLG) is diluted with HTRF KinEASE detection buffer (cisbio) from 16.67 μM to 250 nM (4×), and the final concentration is 62.5 nM; TK Antibody-Cryptate (Cisbio) is diluted with HTRF KinEASE detection buffer (cisbio) from 100× to 5×, and the final concentration is 1×; XL665 and Antibody are mixed in equal volume; the mixed solution is added to each well at 10 μL by using the BioTek automatic dispenser, centrifuged at 2500 rpm for 30 s, and reacted at 25° C. for 1 h. After the reaction is completed, the resulting product is detected by a multi-function plate reader HTR1p
GraphPad Prism 5 software log (inhibitor) vs. response-Variable slope is used to fit a dose-response curve to obtain the IC50 value of the compound to the inhibition of AXL kinase.
The calculation formula of the inhibition rate is as follows: […]

[1] = test system: MV-4-11 (human myeloid monocytic leukemia cell line); assay: Proliferation inhibition activity of compounds to MV-4-11 cells (CellTiter-Glo); format: cell-based; conditions: MV4-11 cells, 72 h dosing
Method: MV-4-11 (human myeloid monocytic leukemia cell line, culture medium: JIMDM+10% fetal bovine serum) is purchased from Cobioer Biosciences Co., Ltd and cultured in a 5% C02 incubator at 37° C. The cells in a logarithmic growth phase are plated in a 96-well plate at cell densities of 8000 cells/well, 6000 cells/well, 2000 cells/well, 2000 cells/well and 3000 cells/well, and a blank control group is set at the same time.
A compound to be tested and the positive drug are dissolved in dimethyl sulfoxide to prepare a 10 mM stock solution, which is then stored in −80° C. refrigerator for long-time storage. After the cells are plated for 24 h, the 10 mM compound stock solution is diluted with dimethyl sulfoxide to obtain a working solution having a 200-fold concentration (the highest concentration is 200 or 2000 μM, a 3-fold gradient, a total of 10 concentrations), and 3 μL of the working solution of each concentration is added to 197 μL of complete medium, and diluted into a working solution of 3-fold concentration. 50 μL of the working solution is then taken and added to a 100 μL cell culture medium (a final concentration of dimethyl sulfoxide is 0.5%, v/v), and two complex holes are set for each concentration. After 72 h of dosing treatment, 50 μl of CellTiter-Glo® (purchased from Promega) is added to each well. Fluorescence signals are measured on Envision (PerkinElmer) according to an operating procedure of the specification. GraphPad Prism 5 software log(inhibitor) vs. response-Variable slope is used to fit a dose-response curve, so as to obtain the IC50 value of the compound to the inhibition of cell-proliferation. The calculation formulation of the inhibition rate is as follows: […]
wherein: signal value of subject: a mean fluorescence signal of cell+medium+compound group; signal value of blank group: a mean fluorescence signal of medium group (containing 0.5% DMSO); signal value of negative control group: a mean fluorescence signal of cell+medium group (containing 0.5% DMSO).

Row | Structure (SMILES) | IC50 (AXL kinase) [nM] | IC50 [1] [nM]
1 | CNC(=O)c1cc(F)ccc1Nc1nc(Nc2ccc3c(c2)CCN(C2CCOCC2)CC3)ncc1Cl [Example 46, 2-((5-chloro-2-((3-(tetrahydro-2H-pyran-4-yl)-2,3,4,5-tetrahydro-1H-benzo[d]aza-7-yl)amino)pyrimidin-4-yl)amino)-5-fluoro-N-methylbenzamide] | 0.8 | 1.63
2 | O=S(=O)(Nc1ccccc1Nc1nc(Nc2ccc3c(c2)CC[C@@H](N2CCCC2)CC3)ncc1Cl)C1CC1 [Example 41, (S)—N-(2-((5-chloro-2-((7-(pyrrolidin-1-yl)-6,7,8,9-tetrahydro-5H-benzo[7]annulen-2-yl)amino)pyrimidin-4-yl)amino)phenyl)cyclopropanesulfonamide] | 2.08 | 4.28
3 | CP(C)(=O)c1cc(CO)ccc1Nc1nc(Nc2ccc3c(c2)CC[C@@H](N2CCCC2)CC3)ncc1Cl [Example 141, (S)-(2-((5-chloro-2-((7-(pyrrolidin-1-yl)-6,7,8,9-tetrahydro-5H-benzo[7]annulen-2-yl)amino)pyrimidin-4-yl)amino)-5-(hydroxymethyl)phenyl)dimethyl phosphine oxide] | 2.43 | 13.9
4 | Clc1cnc(Nc2ccc3c(c2)CC[C@@H](N2CCCC2)CC3)nc1Nc1ccccc1-c1ncn[nH]1 [Example 25, (S)—N^4-(2-(1H-1,2,4-triazol-5-yl)phenyl)-5-chloro-N^2-(7-(pyrrolidin-1-yl)-6,7,8,9-tetrahydro-5H-benzo[7]annulen-2-yl)pyrimidine-2,4-diamine] | 0.62 | 3.23
5 | CNC(=O)c1cc(C#N)ccc1Nc1nc(Nc2ccc3c(c2)CC[C@@H](N2CCCC2)CC3)ncc1Cl [Example 34, (S)-2-((5-chloro-2-((7-(pyrrolidin-1-yl)-6,7,8,9-tetrahydro-5H-benzo[7]annulen-2-yl)amino)pyrimidin-4-yl)amino)-5-cyano-N-methylbenzamide] | 1.27 | 6.16
6 | CNC(=O)c1cnccc1Nc1nc(Nc2ccc3c(c2)CC[C@@H](N2CCCC2)CC3)ncc1Cl [Example 20, (S)-4-((5-chloro-2-((7-(pyrrolidin-1-yl)-6,7,8,9-tetrahydro-5H-benzo[7]annulen-2-yl)amino)pyrimidin-4-yl)amino)-N-methylnicotinamide] | 1.93 | 5.96
7 | O=C(NC1CCOC1)c1ccccc1Nc1nc(Nc2ccc3c(c2)CC[C@@H](N2CCCC2)CC3)ncc1Cl (stereo partly shown) [Example 39] | 2.59 | 6.4
8 | CP(C)(=O)c1cc(F)c(Cl)cc1Nc1nc(Nc2ccc3c(c2)CC[C@@H](N2CCCC2)CC3)ncc1Cl [Example 118, (S)-(4-chloro-2-((5-chloro-2-((7-(pyrrolidin-1-yl)-6,7,8,9-tetrahydro-5H-benzoannulen-2-yl)amino)pyrimidin-4-yl)amino)-5-fluorophenyl)dimethyl phosphine oxide] | 5.45 | 30.3
9 | CP(C)(=O)c1cc(OC(F)(F)F)ccc1Nc1nc(Nc2ccc3c(c2)CC[C@@H](N2CCCC2)CC3)ncc1Cl [Example 76, (S)-(2-((5-chloro-2-((7-(pyrrolidin-1-yl)-6,7,8,9-tetrahydro-5H-benzo[7]annulen-2-yl)amino)pyrimidin-4-yl)amino)-5-(trifluoromethoxyl)phenyl)dimethyl phosphine oxide] |  | 7.98

Other lines, results leading:

Row | IC50 (AXL kinase) [nM] | IC50 [1] [nM] | Structure (SMILES)
10 | 0.8 | 1.46 | CNC(=O)c1ccccc1Nc1nc(Nc2ccc3c(c2)CCN(C2CCOCC2)CC3)ncc1Cl [Example 31, 2-((5-chloro-2-((3-(tetrahydro-2H-pyran-4-yl)-2,3,4,5-tetrahydro-1H-benzo[d]aza-7-yl)amino)pyrimidin-4-yl)amino)-N-methylbenzamide]
11 | 5.29 | 41.3 | CC(C)(O)c1ccc(Nc2nc(Nc3ccc4c(c3)CC[C@@H](N3CCCC3)CC4)ncc2Cl)c(P(C)(C)=O)c1 [Example 138]
12 | 2.38 | 7.1 | CP(C)(=O)c1cc(O)ccc1Nc1nc(Nc2ccc3c(c2)CC[C@@H](N2CCCC2)CC3)ncc1Cl [Example 61, (S)-(2-((5-chloro-2-((7-(pyrrolidin-1-yl)-6,7,8,9-tetrahydro-5H-benzo[7]annulen-2-yl)amino)pyrimidin-4-yl)amino)-5-hydroxyphenyl)dimethyl phosphine oxide]
13 |  | 2.93 | CP(C)(=O)c1cc(OC(F)F)ccc1Nc1nc(Nc2ccc3c(c2)CC[C@@H](N2CCCC2)CC3)ncc1Cl [Example 75, (S)-(2-((5-chloro-2-((7-(pyrrolidin-1-yl)-6,7,8,9-tetrahydro-5H-benzo[7]annulen-2-yl)amino)pyrimidin-4-yl)amino)-5-(difluoromethoxyl)phenyl)dimethyl phosphine oxide]
14 |  | 3.13 | Cc1ccc(Nc2nc(Nc3ccc4c(c3)CC[C@@H](N3CCCC3)CC4)ncc2Cl)c(P(C)(C)=O)n1 [Example 81, (S)-(3-((5-chloro-2-((7-(pyrrolidin-1-yl)-6,7,8,9-tetrahydro-5H-benzo[7]annulen-2-yl)amino)pyrimidin-4-yl)amino)-6-methylpyridin-2-yl)dimethyl phosphine oxide]
15 |  | 8.56 | CP(C)(=O)c1cc(-n2cnnn2)ccc1Nc1nc(Nc2ccc3c(c2)CC[C@@H](N2CCCC2)CC3)ncc1Cl [Example 109, (S)-(2-((5-chloro-2-((7-(pyrrolidin-1-yl)-6,7,8,9-tetrahydro-5H-benzo[7]annulen-2-yl)amino)pyrimidin-4-yl)amino)-5-(1H-tetrazol-1-yl)phenyl)dimethyl phosphine oxide]
16 |  | 10.1 | CNC(=O)c1ccc(Nc2nc(Nc3ccc4c(c3)CC[C@@H](N3CCCC3)CC4)ncc2Cl)c(P(C)(C)=O)c1 [Example 77, (S)-4-((5-chloro-2-((7-(pyrrolidin-1-yl)-6,7,8,9-tetrahydro-5H-benzo[7]annulen-2-yl)amino)pyrimidin-4-yl)amino)-3-(dimethylphosphoryl)-N-methylbenzamide]
17 | 2.36 |  | CP(C)(=O)c1c(Nc2nc(Nc3ccc4c(c3)CC[C@@H](N3CCCC3)CC4)ncc2Cl)ccc(F)c1Cl [Example 132, (S)-(2-chloro-6-((5-chloro-2-((7-(pyrrolidin-1-yl)-6,7,8,9-tetrahydro-5H-benzo [7]annulen-2-yl)amino)pyrimidin-4-yl)amino)-3-fluorophenyl)dimethyl phosphine oxide]
